The source of these data is patent US20200306295A1, “METHOD AND DEVICE FOR ANNIHILATION OF Staphylococcus aureus” (priority 2017, published 2020).

The test system of test [1] is MRSA USA300. As to the kind of experiment: In vivo MRSA mice wound model (blue light, H2O2, fusidic acid). Also on record: species or system Balb/c mice. The text has this:
To initiate the formation of a skin wound, five groups (n=5) of eight-week old female Balb/c mice (obtained from Harlan Laboratories, Indianapolis, Ind., USA) were disinfected with ethanol (70%) and shaved on the middle of the back (approximately a one-inch by one-inch square region around the injection site) one day prior to infection as described from a reported procedure (3). To prepare the bacterial inoculum, an aliquot of overnight culture of MRSA USA300 was transferred to fresh Tryptic soy broth and shaken at 37° C. until an OD600 value of ˜1.0 was achieved. The cells were centrifuged, washed once with PBS, re-centrifuged, and then re-suspended in PBS. Mice subsequently received an intradermal injection (40 μL) containing 2.40×10^9 CFU/mL MRSA USA300. An open wound formed at the site of injection for each mouse, ˜60 hrs post-infection.
One group of mice was left untreated (negative control). Each group of mice receiving a particular treatment regimen was housed separately in a ventilated cage with appropriate bedding, food, and water. Mice were checked twice daily during infection and treatment to ensure no adverse reactions were observed. Mice were treated twice daily (once every 12 hours) for three days, before they were humanely euthanized via CO2 asphyxiation 12 hours after the last dose was administered. The region around the skin wound was lightly swabbed with ethanol (70%) and excised. The tissue was subsequently homogenized in PBS. The homogenized tissue was then serially diluted in PBS before plating onto mannitol salt agar plates. Plates were incubated for at least 19 hours at 37° C. before viable MRSA CFU/mL were counted for each group. Outlier was removed based upon the Dixon Q Test.

Test [2] deals with MRSA USA300. The protocol:
Thereafter, an aliquot (20 μL) of the bacterial suspension was transferred onto a glass slide. Samples were exposed to blue light at different time-lengths and variable light intensities. […] The solutions were cultured for 20 min. The solution was serially diluted in sterile PBS and transferred to LB plates in order to enumerate the viable number of MRSA colony-forming units (CFUs). […] Data are presented as viable MRSA CFU/mL and percent survival of MRSA CFU/mL in the treated groups.
Additive was defined as an FIC index of 1. Antagonism was defined as an FIC index of >4.

In another test the test system is stationary-phase MRSA. Kind of test: Time-killing assay in PBS with or without pulsed laser (CFU enumeration). In kind it is cell-based, S. aureus. The protocol:
To quantify viable bacterial cells, CFU experiments were performed. 100 μl of sample analyte was transferred into a 96-well plate and then three or four ten-fold serial dilution achieved by transferring 20 μl bacterial culture into 180 μl 1×PBS in the next dilution row. After serial dilution, an aliquot (4 μl) from each well was spotted onto sterile TSA plates. After incubating the plates overnight (˜18 hours) at 37° C., the colonies were enumerated, and cell number was calculated in CFU/ml. For each CFU enumeration experiment, three independent replicates were applied.
Stationary-phase MRSA was prepared, washed and resuspended in 1×PBS at two-times of its original concentration. […] After laser treatment, the droplets were resuspended into 200 μl of 1×PBS (1:40 dilution) supplemented with antibiotics at different concentrations in a mini centrifuge tube (89166-278, VWR international). For example, daptomycin was added into MRSA solution after laser treatment at desired concentration of 0×MIC, 5×MIC, 10×MIC, 30×MIC, or 100×MIC supplemented with 50 μg/ml CaCl2). Corresponding groups without laser treatment were also conducted for comparison. These tubes were incubated within an orbital incubator (37° C., 200 rpm) for different incubation time. At each specific time point, 40 μl of aliquot from each group was transferred to a 96-well plate for follow-up CFU enumerating assay. In the case of tobramycin, additional antibiotic washing by 1×PBS was performed before the CFU experiment to avoid antibiotic interference. For time-killing assay in fresh human whole blood, similar protocol was followed as above, except that 1×PBS was replaced by fresh human whole blood and the initial stationary-phase MRSA solution was diluted by ten times with a concentration of ˜10^7 CFU/ml.

For test [3], the system named is S. aureus (ATCC 6538) biofilm. Conditions: blue light plus low-concentration H2O2.
Where [4] appears, read: agent alone, topical, twice a day for three days.

Each structure is given as a SMILES string.

With `CC(=O)O[C@H]1C[C@@]2(C)[C@@H](C[C@@H](O)[C@H]3[C@@]4(C)CC[C@@H](O)[C@@H](C)[C@@H]4CC[C@@]32C)/C1=C(\CCC=C(C)C)C(=O)O` [fusidic acid], the “pus formation in wound after sacrifice” value in the test with MRSA USA300 [1] (setting [4]) was “showed the formation of pus”.

Regarding `OO` [H2O2, hydrogen peroxide], the “MRSA killing (CFUs)” value in the test with MRSA USA300 [2] (13.2 mM H2O2 combined with blue light 108 J/cm^2, ~10^7 MRSA) is listed as “eradicated all MRSA”. The same compound gave an MRSA scavenged in the test on MRSA USA300 [2] (5-min culture with H2O2 after 2-min blue light exposure (24 J/cm^2)) of 60%. Besides, the “antimicrobial efficiency relative to 2-min blue light alone” value in the test on MRSA USA300 [2] (H2O2 20 min, 13.2 mM after 2-min blue light (24 J/cm^2)) is reported as “Two times antimicrobial efficiency”. Besides, in the test on MRSA USA300 [2] (blue light and H2O2 against MRSA, ≤0.5 is synergy, according to estimation), the FIC index is at most 0.38. For the same compound, the “pus formation in wound after sacrifice” value in the test with MRSA USA300 [1] (setting [4]) and in the test with MRSA USA300 [1] (blue light plus H2O2) was “didn't show this sign” throughout. Further, in the test on MRSA USA300 [1] (blue light (24 J/cm^2) and 13.2 mM H2O2, twice daily for three days), the “CFU reduction in wound tissue compared to the control group” value is given as “around 1.5 log”. Moreover, the “CFU reduction in wound tissue compared to fusidic acid-treated group” value in the test with MRSA USA300 [1] (blue light and H2O2-treated group) is recorded as “around one more log reduction”. Besides, the “killing of stationary-phase MRSA” value was 4 log in the test on stationary-phase MRSA (220 μM with laser treatment, within 2 hours) and “minor killing” with stationary-phase MRSA (alone, at 22 mM high concentration). Also, the “MRSA killed inside biofilm” value in test [3] amounted to 92%.
